The values below come from publication PMC4619705 (PLoS ONE, 2015).

A word on the EC50: it is the concentration that produces a half-maximal response.

“Also recorded” adds a separate entry of the source.

What all share (format): cell-based
Test [1] concerns the target T1, β3 homomeric receptors (Homo sapiens, UniProt P28472).
T1 construct: expressed in transfected cells; host or cells: Xenopus laevis oocytes injected with β3 mRNA (5 ng/oocyte)
T1 sequence (P28472 26-473): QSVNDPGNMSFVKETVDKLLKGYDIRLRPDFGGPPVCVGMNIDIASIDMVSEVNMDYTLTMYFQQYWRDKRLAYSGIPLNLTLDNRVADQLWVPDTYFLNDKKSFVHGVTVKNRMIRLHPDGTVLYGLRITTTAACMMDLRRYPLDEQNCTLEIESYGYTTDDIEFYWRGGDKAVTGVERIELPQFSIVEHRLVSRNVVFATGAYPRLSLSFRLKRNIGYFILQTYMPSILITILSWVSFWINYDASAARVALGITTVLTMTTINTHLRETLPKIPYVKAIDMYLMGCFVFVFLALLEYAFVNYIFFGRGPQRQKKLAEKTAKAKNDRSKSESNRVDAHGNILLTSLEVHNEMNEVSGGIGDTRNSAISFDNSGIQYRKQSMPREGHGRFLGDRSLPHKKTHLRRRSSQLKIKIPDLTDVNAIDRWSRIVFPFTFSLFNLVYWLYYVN
Description: Two-electrode voltage clamp of β3 homomeric receptors expressed in Xenopus oocytes. The following applies: β3 homomeric receptors; 0.1–300 μM etomidate. From the text: (§1) Human complementary DNA (cDNA) of GABAAR α2 subunit (vector: pCMV6-XL5) was purchased from OriGene Technologies (Rockville, MD, USA), and the human β3 (vector: pGEMHE) and γ2L (vector: pCDM8) subunits were generous gifts from Dr. Bjarke Ebert (H. Lundbeck A/S, Valby, Denmark) and Dr. Paul Whiting (Merck, Sharp and Dohme Research Laboratories, Harlow, Essex, UK) respectively. […] Plasmid vectors with the cDNA incorporated were linearised using appropriate restriction endonucleases (α2: SmaI; β3: NheI; γ2L: NotI). Capped RNA transcripts were synthesised from linearised plasmids using the mMessage mMachine T7 transcript kit from Ambion (Austin, TX, USA). Purified messenger RNA (mRNA) was dissolved in nuclease-free water (Ambion, Austin, TX, USA), and its quality was assessed using 1% agarose gel electrophoresis. The concentration of each subunit mRNA was measured using Nanodrop ND-100 UV-Vis spectrophotometer (Thermo Fisher Scientific, North Ryde, NSW, Australia).
(§2) Various combinations of α2, β3 and γ2L subunit mRNAs were mixed to different ratios as stated in the text, and diluted accordingly to a concentration of 5 ng/μL (unless otherwise stated). […] Injected oocytes were stored in ND96 storage solution supplemented with 50 μg/mL gentamycin and tetracycline at 18°C. Two-electrode voltage clamp recordings were performed on oocytes 2–4 days post-injection at room temperature (20–25°C) using a GeneClamp 500B amplifier (ADInstruments, Sydney, NSW, Australia) or a Warner OC-725C Oocyte Clamp (Warner Instrument Corp, Hamden, CT, USA). All experiments were conducted at a holding potential of –60 mV, and data were acquired with a PowerLab 2/25, and LabChart (version 5.0.2) software (ADInstruments, Sydney, NSW, Australia). The recording microelectrodes (0.2–1.1 MΩ) were generated from capillary glass (Harvard Apparatus, Holliston, MA, USA) using a single-stage glass microelectrode puller (Narishige, Tokyo, Japan), and were filled with 3 M KCl solution. The perfusion system was built using a series of polycarbonate, high-density polyethylene two-way stopcocks (Qosina, Edgewood, NY, USA), connected through tubing to the recording chamber (100 μL), where the oocyte was continuously perfused with ND96 recording solution (96 mM NaCl, 2 mM KCl, 1 mM MgCl2, 1.8 mM CaCl2, 5 mM HEPES hemisodium; pH 7.4) at an approximate rate of 5 mL/min.
(§3) Perfusates containing these chemicals were made up fresh before each application. The concentration-response curves of agonists were obtained by exposing oocytes to increasing concentrations of agonists until the currents peaked. […] All experiments were performed using at least two different batches of oocytes.
Prism (version 5.04; GraphPad Software, La Jolla, CA, USA) was used for data analysis. […]
In general terms: Two-electrode voltage clamp holds a large cell at a set potential and records current.

Test [2] deals with T2, γ2L homomeric receptors (Homo sapiens, UniProt P18507).
T2 construct: expressed in transfected cells; host or cells: Xenopus laevis oocytes injected with γ2L mRNA alone (high amounts)
Kind of test: Two-electrode voltage clamp of γ2L homomeric receptors expressed in Xenopus oocytes. The following applies: 100 μM.
Text: as §1, §2, §3

Test [3] addresses T3, α2γ2L receptors (Homo sapiens, UniProt P18507+P47869).
T3 construct: expressed in transfected cells; host or cells: Xenopus laevis oocytes injected with α2 and γ2L mRNAs
Kind of test: Two-electrode voltage clamp of binary α2γ2L receptors expressed in Xenopus oocytes.
Text: as §1, §2, §3

The target of test [4] is T4, β3γ2L GABAARs (Homo sapiens, UniProt P18507+P28472).
T4 construct: expressed in transfected cells; host or cells: Xenopus laevis oocytes injected with β3 and γ2L mRNAs at 1:1 to 1:100
Kind of test: Two-electrode voltage clamp of β3γ2L GABAARs expressed at various β3:γ2L mRNA ratios in Xenopus oocytes. The following applies: for EC50: EC50 (95% CI) of direct activation; for Effect of Zn2+ alone on baseline current: 100 μM.
Text: as §1
as §2, with “All experiments were conducted at a holding potential of –60 mV, and data were acquired with a PowerLab 2/25, and LabChart (version 5.0.2) software (ADInstruments, Sydney, NSW, Australia).” left out
as §3
(§4) Prism (version 5.04; GraphPad Software, La Jolla, CA, USA) was used for data analysis.
(§5) In all cases, we constrained the bottom to 0, and when fitting data to the biphasic model, the Hill slopes were constrained to 1. Statistical comparisons of results for different injection ratios of β3γ2L receptors were performed using ANOVA with Tukey’s post-hoc test. When comparing results from different injection ratios of β3γ2L receptors with α2β3γ2L receptors, the ANOVA Dunnett’s test was used. Pairwise comparisons were performed using Student’s t test. Statistical significance was attained at p < 0.05.

Test [5] has as its target T5, α2β3 GABAARs (Homo sapiens, UniProt P28472+P47869).
T5 construct: expressed in transfected cells; host or cells: Xenopus laevis oocytes injected with capped mRNA, α2:β3 20:1
T5 sequence (P47869 29-451): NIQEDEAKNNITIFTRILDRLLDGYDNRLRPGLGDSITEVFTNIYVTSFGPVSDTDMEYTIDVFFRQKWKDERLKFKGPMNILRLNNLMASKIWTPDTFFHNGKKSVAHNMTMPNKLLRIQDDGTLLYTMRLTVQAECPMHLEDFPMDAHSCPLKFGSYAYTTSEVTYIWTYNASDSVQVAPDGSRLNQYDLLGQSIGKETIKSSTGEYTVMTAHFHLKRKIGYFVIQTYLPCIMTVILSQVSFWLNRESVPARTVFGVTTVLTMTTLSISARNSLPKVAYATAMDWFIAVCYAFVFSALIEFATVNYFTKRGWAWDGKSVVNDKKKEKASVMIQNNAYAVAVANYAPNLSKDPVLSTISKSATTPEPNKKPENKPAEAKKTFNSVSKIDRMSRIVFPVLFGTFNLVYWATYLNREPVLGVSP
T5 sequence (P28472 26-473): T1 sequence (P28472 26-473)
Description: Two-electrode voltage clamp of binary α2β3 GABAARs expressed in Xenopus oocytes. The following applies: α2β3 20:1; 100 μM.
Text: as §1, §2, §3, §4, §5

T2 sequence (P18507 40-475): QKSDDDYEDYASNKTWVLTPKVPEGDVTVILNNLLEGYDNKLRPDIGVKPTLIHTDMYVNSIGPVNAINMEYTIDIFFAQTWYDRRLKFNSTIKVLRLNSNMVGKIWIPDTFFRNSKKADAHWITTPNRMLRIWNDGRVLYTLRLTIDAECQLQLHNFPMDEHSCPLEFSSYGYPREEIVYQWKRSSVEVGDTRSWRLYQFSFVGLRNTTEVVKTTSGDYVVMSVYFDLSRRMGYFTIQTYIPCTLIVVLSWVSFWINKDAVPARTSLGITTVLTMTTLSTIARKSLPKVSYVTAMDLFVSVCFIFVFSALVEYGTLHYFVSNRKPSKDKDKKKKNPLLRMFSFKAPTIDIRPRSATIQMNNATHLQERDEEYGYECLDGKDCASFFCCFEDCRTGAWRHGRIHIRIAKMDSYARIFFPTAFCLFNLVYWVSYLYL
T4 sequence (P18507 40-475, one chain of several): as the sequence (P18507 40-475) above
T3 sequence (P18507 40-475, one chain of several): as the sequence (P18507 40-475) above

For the compound `CCOC(=O)c1cncn1[C@H](C)c1ccccc1` [Etomidate], the “E max, normalised against 60 mM GABA” value in test [1] is 15 ± 0.79. Also, the “Direct activation by etomidate” value is recorded as “not sensitive; also recorded: did not activate” in test [2] (γ2L alone) and “did not activate” in test [3] (α2γ2L, data not shown). Further, the “E max ± SEM (300 μM etomidate-elicited current normalised against 3 mM GABA response)” value in test [4] (β3γ2L 1:15, -30 mV) is reported as 9.9 ± 0.84; in test [4] (β3γ2L 1:50, -60 mV), 5.5 ± 0.80; in test [4] (β3γ2L 1:100, -30 mV) it was 2.8 ± 0.50; in test [4] (β3γ2L 1:100, -60 mV), 3.2 ± 0.40. The “n H ± SEM (Hill slope) of direct activation” value in test [4] (β3γ2L 1:15, -30 mV) is given as 1.3 ± 0.33; in test [4] (β3γ2L 1:15, -60 mV), 2.0 ± 0.32; in test [4] (β3γ2L 1:50, -60 mV), 1.3 ± 0.37; in test [4] (β3γ2L 1:100, -30 mV) it was 1.2 ± 0.50; in test [4] (β3γ2L 1:100, -60 mV) it was 1.5 ± 0.46. In test [4] (β3γ2L 1:15, -60 mV), the “E max ± SEM (30 μM etomidate-elicited current normalised against 3 mM GABA response)” value came out at 20 ± 1.8.

In the case of `CC(C)c1cccc(C(C)C)c1O` [Propofol], the concentration giving a half-maximal response (EC50) in test [4] (β3γ2L 1:15, -60 mV) is 85 µM; in test [4] (β3γ2L 1:100, -60 mV), 74 µM. Moreover, the “E max ± SEM (300 μM propofol-elicited current normalised against 3 mM GABA response)” value is recorded as 5.7 ± 0.55 in test [4] (β3γ2L 1:15, -60 mV); “approximately 6” in test [4] (β3γ2L 1:15, -60 mV, listed as propofol); 0.64 ± 0.23 in test [4] (β3γ2L 1:100, -60 mV). In addition, the “n H ± SEM (Hill slope) of direct activation” value is listed as 1.4 ± 0.50 in test [4] (β3γ2L 1:15, -60 mV) and 2.0 ± 1.2 in test [4] (β3γ2L 1:100, -60 mV).

Take `[Cl-].[Cl-].[Zn+2]` [Zn^2+, zinc chloride]: the “Effect of Zn2+ alone on baseline current” value in test [5] is “lack of activity”; in test [4] (β3γ2L 1:15), “reduction in inward current; also recorded: sensitive to the inhibition”; in test [4] (β3γ2L 1:50) it was “did not have any effects”; in test [4] (β3γ2L 1:100), “did not have any effects”. Further, the “Effect of Zn2+ alone on constitutive activity” value in test [2] (28–35 ng/oocyte) is “inhibited”. For the same compound, the “Effect of Zn2+ alone” value in test [3] (α2γ2L 1:1, 100 μM) is recorded as “no function”.
